Patent US9302988B2, “Fluoromethyl-substituted pyrrole carboxamides” (GRÜNENTHAL GMBH, priority 2012, dated 2016)

Molecular target: T1, Human CaV2.2 channels (Homo sapiens, UniProt Q00975)
T1 construct: expressed in transfected cells
Experiment: Fluorescent assay for CaV2.2 channels using potassium depolarization to induce channel opening (FLIPR, Fluo-4)
Format: cell-based
Conditions: 3 μM test compound, 30 mM KCl, HEK293 cells stably expressing human CaV2.2; read-out: %-Inhib (CaV2.2) @3 μM @30 mM KCl
How it was run: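 HEK293 cells stably co-expressing CaV2.2 with α2δ and β subunits plus Kir2.3 were Fluo-4 loaded, then preincubated 15 min at 25 °C with compound in 30 mM KCl buffer, pH 7.4. Depolarization was by adding buffer containing 210 mM KCl. Inhibition was taken from baseline-normalized peak fluorescence amplitude (ex 480/em 535 nm).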

T1 sequence (Q00975 whole entry): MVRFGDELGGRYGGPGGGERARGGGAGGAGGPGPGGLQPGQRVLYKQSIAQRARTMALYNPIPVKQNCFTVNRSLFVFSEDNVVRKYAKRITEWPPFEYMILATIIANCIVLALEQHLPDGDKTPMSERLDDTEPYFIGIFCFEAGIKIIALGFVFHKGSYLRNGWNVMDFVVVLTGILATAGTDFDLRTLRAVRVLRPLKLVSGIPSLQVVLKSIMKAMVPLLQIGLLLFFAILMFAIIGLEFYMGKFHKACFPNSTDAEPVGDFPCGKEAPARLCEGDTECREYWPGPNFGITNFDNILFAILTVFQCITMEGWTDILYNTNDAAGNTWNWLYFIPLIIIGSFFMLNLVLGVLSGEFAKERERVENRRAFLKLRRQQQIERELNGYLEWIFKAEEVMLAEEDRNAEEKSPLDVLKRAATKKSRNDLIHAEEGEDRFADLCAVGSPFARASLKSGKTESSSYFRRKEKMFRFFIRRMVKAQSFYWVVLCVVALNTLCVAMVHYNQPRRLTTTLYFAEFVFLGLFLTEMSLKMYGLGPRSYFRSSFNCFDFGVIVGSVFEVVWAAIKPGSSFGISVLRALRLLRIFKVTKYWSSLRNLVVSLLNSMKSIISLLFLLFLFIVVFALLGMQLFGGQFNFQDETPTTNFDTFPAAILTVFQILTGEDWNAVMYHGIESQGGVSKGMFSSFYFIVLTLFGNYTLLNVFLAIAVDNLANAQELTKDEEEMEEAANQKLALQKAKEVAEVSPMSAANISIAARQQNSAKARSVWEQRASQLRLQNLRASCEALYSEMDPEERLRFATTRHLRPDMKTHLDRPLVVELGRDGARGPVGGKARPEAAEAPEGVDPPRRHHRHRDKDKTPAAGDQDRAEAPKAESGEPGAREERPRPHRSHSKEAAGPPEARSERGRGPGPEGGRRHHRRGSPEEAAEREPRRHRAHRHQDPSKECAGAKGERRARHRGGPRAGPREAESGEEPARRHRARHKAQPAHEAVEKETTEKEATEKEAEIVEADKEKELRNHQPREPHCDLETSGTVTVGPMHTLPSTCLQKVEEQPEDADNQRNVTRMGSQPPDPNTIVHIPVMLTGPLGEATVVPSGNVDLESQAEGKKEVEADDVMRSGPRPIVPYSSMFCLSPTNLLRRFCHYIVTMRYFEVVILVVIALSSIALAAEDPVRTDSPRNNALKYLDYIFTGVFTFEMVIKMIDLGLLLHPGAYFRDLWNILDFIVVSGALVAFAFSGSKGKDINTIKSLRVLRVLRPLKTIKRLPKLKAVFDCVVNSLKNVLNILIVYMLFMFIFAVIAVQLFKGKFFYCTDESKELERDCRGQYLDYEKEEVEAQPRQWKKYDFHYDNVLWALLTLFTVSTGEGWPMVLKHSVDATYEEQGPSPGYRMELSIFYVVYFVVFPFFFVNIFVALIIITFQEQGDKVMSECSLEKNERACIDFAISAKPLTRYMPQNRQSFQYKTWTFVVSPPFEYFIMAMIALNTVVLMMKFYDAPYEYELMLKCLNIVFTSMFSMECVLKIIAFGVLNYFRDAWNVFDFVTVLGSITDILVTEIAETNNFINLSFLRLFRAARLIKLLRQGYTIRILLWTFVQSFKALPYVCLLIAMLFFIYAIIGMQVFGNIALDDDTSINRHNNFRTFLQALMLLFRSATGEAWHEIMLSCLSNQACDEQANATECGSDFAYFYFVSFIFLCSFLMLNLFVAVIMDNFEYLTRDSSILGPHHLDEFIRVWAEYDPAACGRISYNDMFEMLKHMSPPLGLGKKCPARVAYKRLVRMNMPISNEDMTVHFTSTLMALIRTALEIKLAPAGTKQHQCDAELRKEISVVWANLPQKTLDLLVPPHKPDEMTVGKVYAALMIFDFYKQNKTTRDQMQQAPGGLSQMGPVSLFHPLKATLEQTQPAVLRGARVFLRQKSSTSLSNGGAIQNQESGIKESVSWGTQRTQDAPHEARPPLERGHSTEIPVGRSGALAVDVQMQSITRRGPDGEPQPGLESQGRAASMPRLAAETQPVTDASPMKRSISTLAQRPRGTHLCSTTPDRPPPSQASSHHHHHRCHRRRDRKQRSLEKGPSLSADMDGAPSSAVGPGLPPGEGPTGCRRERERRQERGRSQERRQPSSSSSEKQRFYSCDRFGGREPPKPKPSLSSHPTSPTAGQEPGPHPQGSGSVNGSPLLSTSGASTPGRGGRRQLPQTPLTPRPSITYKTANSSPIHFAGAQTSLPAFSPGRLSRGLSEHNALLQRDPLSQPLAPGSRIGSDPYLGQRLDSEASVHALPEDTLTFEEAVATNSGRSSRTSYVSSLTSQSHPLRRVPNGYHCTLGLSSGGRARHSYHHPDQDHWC
T1 sequence (P54289 25-1103, further chain): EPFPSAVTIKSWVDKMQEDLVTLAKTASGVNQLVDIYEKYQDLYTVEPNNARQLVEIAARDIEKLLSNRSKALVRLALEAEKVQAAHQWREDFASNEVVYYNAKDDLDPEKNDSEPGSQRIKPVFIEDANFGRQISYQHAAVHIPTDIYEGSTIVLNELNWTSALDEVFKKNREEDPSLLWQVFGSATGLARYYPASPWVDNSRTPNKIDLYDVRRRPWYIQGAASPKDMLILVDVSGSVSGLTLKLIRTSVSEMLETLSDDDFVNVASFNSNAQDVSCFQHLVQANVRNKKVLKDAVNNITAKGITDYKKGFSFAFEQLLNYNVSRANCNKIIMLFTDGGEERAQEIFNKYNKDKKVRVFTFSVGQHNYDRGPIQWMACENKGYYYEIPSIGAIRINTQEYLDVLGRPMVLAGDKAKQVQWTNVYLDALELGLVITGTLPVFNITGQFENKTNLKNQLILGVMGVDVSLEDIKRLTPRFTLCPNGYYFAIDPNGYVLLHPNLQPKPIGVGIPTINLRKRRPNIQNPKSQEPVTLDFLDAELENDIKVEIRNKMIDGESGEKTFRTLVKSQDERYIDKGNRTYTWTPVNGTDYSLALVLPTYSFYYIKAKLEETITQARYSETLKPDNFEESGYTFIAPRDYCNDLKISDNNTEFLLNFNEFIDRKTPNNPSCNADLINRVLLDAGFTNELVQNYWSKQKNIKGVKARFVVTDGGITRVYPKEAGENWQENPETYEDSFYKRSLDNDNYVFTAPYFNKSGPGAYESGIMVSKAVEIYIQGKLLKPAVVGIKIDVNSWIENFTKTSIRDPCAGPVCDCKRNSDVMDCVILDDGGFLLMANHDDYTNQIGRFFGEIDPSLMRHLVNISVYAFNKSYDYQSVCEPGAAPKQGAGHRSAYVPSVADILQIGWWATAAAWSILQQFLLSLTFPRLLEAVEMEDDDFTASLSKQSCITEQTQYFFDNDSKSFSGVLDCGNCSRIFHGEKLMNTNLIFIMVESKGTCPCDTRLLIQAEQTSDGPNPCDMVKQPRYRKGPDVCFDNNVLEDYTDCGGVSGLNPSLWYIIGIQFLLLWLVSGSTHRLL
T1 sequence (P54284 whole entry, further chain): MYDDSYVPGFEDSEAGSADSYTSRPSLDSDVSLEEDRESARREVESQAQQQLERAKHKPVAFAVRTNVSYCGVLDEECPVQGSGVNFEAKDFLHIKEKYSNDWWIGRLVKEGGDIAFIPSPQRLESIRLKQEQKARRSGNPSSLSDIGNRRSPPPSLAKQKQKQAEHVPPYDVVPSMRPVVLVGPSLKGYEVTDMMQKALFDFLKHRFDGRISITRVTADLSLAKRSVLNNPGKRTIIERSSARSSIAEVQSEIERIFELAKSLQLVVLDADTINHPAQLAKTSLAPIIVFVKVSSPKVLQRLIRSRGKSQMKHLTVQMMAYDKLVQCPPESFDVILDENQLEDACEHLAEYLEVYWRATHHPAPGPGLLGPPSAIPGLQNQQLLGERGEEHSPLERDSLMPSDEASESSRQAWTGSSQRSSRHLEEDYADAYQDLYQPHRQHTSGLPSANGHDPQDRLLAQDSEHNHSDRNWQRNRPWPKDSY

Structure (SMILES) | inhibition at 3 µM [%]
O=C(c1c(-c2ccc(Cl)cc2F)cc(C(F)(F)F)n1Cc1ccccc1)N1CCOCC1 [SC-86, [1-Benzyl-3-(4-chloro-2-fluoro-phenyl)-5-(trifluoromethyl)-1H-pyrrol-2-yl]-morpholin-4-yl-methanone] | > 95
Cc1c(-c2ccc(F)cc2)c(C(=O)N(C)C2CC2)n(Cc2ccccc2)c1C(F)(F)F [SC-221, 1-Benzyl-N-cyclopropyl-3-(4-fluorophenyl)-N,4-dimethyl-5-(trifluoromethyl)-1H-pyrrole-2-carboxylic acid amide] | > 95
Cc1c(-c2ccc(Cl)cc2)c(C(=O)N(C)CC2CCOC2)n(Cc2ccccc2)c1C(F)(F)F (stereo not shown) [SC-121, 1-Benzyl-3-(4-chlorophenyl)-N,4-dimethyl-N-(tetrahydro-furan-3-yl-methyl)-5-(trifluoromethyl)-1H-pyrrole-2-carboxylic acid amide] | > 95
Cc1c(-c2ccc(Cl)c(F)c2)c(C(=O)N(C)C2CCOCC2)n(Cc2ccccc2)c1C(F)(F)F [SC-245, 1-Benzyl-3-(4-chloro-3-fluoro-phenyl)-N,4-dimethyl-N-tetrahydro-pyran-4-yl-5-(trifluoromethyl)-1H-pyrrole-2-carboxylic acid amide] | > 95
Cc1c(-c2ccc(Cl)cc2)c(C(=O)N(C)CC(C)(C)O)n(Cc2ccccc2)c1C(F)(F)F [SC-54, 1-Benzyl-3-(4-chlorophenyl)-N-(2-hydroxy-2-methyl-propyl)-N,4-dimethyl-5-(trifluoromethyl)-1H-pyrrole-2-carboxylic acid amide] | > 95
Cc1c(-c2ccc(Cl)cc2)c(C(=O)N2CCN(C)C(=O)C2)n(Cc2ccccc2)c1C(F)(F)F [SC-09, 4-[1-Benzyl-3-(4-chlorophenyl)-4-methyl-5-(trifluoromethyl)-1H-pyrrole-2-carbonyl]-1-methyl-piperazin-2-one] | 75 to 95
CN(CC(C)(C)O)C(=O)c1c(-c2ccc(Cl)cc2)cc(C(F)(F)F)n1Cc1ccccc1 [SC-68, 1-Benzyl-3-(4-chlorophenyl)-N-(2-hydroxy-2-methyl-propyl)-N-methyl-5-(trifluoromethyl)-1H-pyrrole-2-carboxylic acid amide] | > 95
Cc1c(-c2ccc(Cl)c(F)c2)c(C(=O)N(C)C(C)(C)CO)n(Cc2ccccc2)c1C(F)(F)F [SC-248, 1-Benzyl-3-(4-chloro-3-fluoro-phenyl)-N-(2-hydroxy-1,1-dimethyl-ethyl)-N,4-dimethyl-5-(trifluoromethyl)-1H-pyrrole-2-carboxylic acid amide] | 75 to 95
O=C(c1c(-c2ccc(Cl)cc2)cc(C(F)(F)F)n1Cc1ccccc1)N1CCS(=O)(=O)CC1 [SC-196, [1-Benzyl-3-(4-chlorophenyl)-5-(trifluoromethyl)-1H-pyrrol-2-yl]-(1,1-dioxo-[1,4]thiazinan-4-yl)-methanone] | > 95
COC1(CNC(=O)c2c(-c3ccc(Cl)cc3)c(C)c(C(F)(F)F)n2Cc2ccccc2)CC1 [SC-36, 1-Benzyl-3-(4-chlorophenyl)-N-[(1-methoxy-cyclopropyl)-methyl]-4-methyl-5-(trifluoromethyl)-1H-pyrrole-2-carboxylic acid amide] | > 95
Cc1c(-c2ccc(Cl)cc2)c(C(=O)NC(C)C)n(Cc2ccccc2)c1C(F)(F)F [SC-150, 1-Benzyl-3-(4-chlorophenyl)-N-isopropyl-4-methyl-5-(trifluoromethyl)-1H-pyrrole-2-carboxylic acid amide] | 75 to 95
Cc1c(-c2ccc(Cl)cc2)c(C(=O)N2CCOC(CO)C2)n(Cc2ccccc2)c1C(F)(F)F (stereo not shown) [SC-20, [1-Benzyl-3-(4-chlorophenyl)-4-methyl-5-(trifluoromethyl)-1H-pyrrol-2-yl]-[2-(hydroxymethyl)-morpholin-4-yl]-methanone] | 75 to 95
CN(CC1CCOC1)C(=O)c1c(-c2ccc(Cl)cc2)cc(C(F)(F)F)n1Cc1ccccc1 (stereo not shown) [SC-182, 1-Benzyl-3-(4-chlorophenyl)-N-methyl-N-(tetrahydro-furan-3-yl-methyl)-5-(trifluoromethyl)-1H-pyrrole-2-carboxylic acid amide] | > 95
